In US20260199274A1 (priority 2022, published 2026):

Assays:
[1] = system: influenza B Yamagata (B/Paris/234/2013) virus; assay: Plaque-Forming Units assay, BEAS-2B cells infected with IBV; assay type: cell-based; details: 3.4 mM for 16 h from 4 h post-infection
[2] = system: influenza A/pandemic/2009 H1N1 (H1N1p) strain; assay type: cell-based, influenza A virus
BEAS-2B cells = assay: BEAS-2B tolerance: Ki67, mitotracker, DHR 123 and Live Dead staining; assay type: cell-based, human
Experimental: (FIG. 8a) Human bronchial epithelial BEAS-2B cells were treated with PBS or with 3.4 mM of cis-aconitate (CA), itaconate (Ita), oxaloacetate (Oxa), isocitrate (IsoC), citrate (Cit), fumarate (Fum), pyruvate (Pyr) or glucose (Glc) for 16 h and cytotoxicity was assessed by MTS assay. BEAS-2B cells were treated (CA+) or not (CA-) with 3.4 mM of CA for 6 or 24 h (FIG. 8b, 8c, 8d) or with 0, 1.2, 2.3 or 3.4 mM of CA for 20 h (FIG. 8e). Cell proliferation (FIG. 8b), mitochondrial labeling (FIG. 8c), ROS production (FIG. 8d) and cell viability (FIG. 8e) were analyzed by Ki67, mitotracker, DHR 123 and Live Dead staining respectively. (FIG. 8f) Human primary bronchial epithelial cells (PBEC) were treated with 0.6, 3.4 or 5.7 mM CA for 16 h and cytotoxicity was assessed by a MTS test. Data are represented as mean±/−SEM of 4 (FIG. 8b-f) or 5 (FIG. 8a) independent experiments. Statistical analysis was performed using the Kruskal-Wallis test with Dunn's multiple comparison test (FIGS. 8a, 8e and 8f) or Friedman test with Dunn's multiple comparison test (FIG. 8b-8d).
Cell proliferation and cytotoxicity assays. Cells in 96-well plates were washed twice with PBS and incubated for 1 h at 37° C. with 100 μL of MTS reagent diluted 1/5 for the cell proliferation test. Optical density was measured at 490 nm. For the cytotoxicity assay, cells were stained for 15 min at 4° C. with Live/Dead or with anti-Ki67, mitotracker and […] flow cytometry analysis.

[3] = system: NF-kB activity / TNFα secretion; assay: Murine model of acute lung injury induced by lipopolysaccharide; assay type: in vivo, mice; details: 10 μg LPS
Experimental: NF-kB transgenic Balb/c (FIG. 11a, 11b) or C57Bl/6 (FIG. 11c) mice were instilled with 10 μg of lipopolysaccharides (LPS) and treated 15 minutes post-stimulation with 0.6 mg of cis-aconitate (CA) intranasally. 24 h post-instillation, mice were anesthetized. In the group of NF-kB transgenic Balb/c animals, luciferine was intranasally instilled (0.75 mg·kg^−1) and bioluminescence was measured using the IVIS imaging system (FIG. 11a, 11b). In the group of C57Bl/6 mice, BALs fluids were collected to determine TNFα levels (FIG. 11c).). Bioluminescence was then measured using the IVIS system. […] Statistical analysis was performed using the Mann-Whitney test.
Then, we further examined the anti-inflammatory effect of cis-aconitate administered intranasally in a valuable murine model of acute lung injury induced by lipopolysaccharide ([63]), a cell wall component characteristic of Gram-negative bacteria.

IL-6 production [4] = assay: hIL-6 in IAV-infected human precision-cut lung slices (PCLS); assay type: cell-based; details: 3.4 mM CA 2 hpi, 48 hpi
[5] = 0.6 mg intranasally every second day for 15 days
IL-6 production [6] = assay: IL-6 ELISA in BEAS-2B cells stimulated with inflammatory agonists (PIC, PMA, TNFα); assay type: cell-based, human; details: increasing doses of CA 16 h
IL-6 production [7] = assay: hIL-6 ELISA in supernatants of IAV-infected BEAS-2B cells; assay type: cell-based, human
IAV-triggered cell death = assay type: cell-based, human
viral polymerase = viral polymerase (Influenza A virus, UniProt P03427+P03430+P15659); assay type: cell-based
[8] = system: A/Puerto Rico/8/1934 H1N1 (PR8) virus; assay type: cell-based, influenza A virus
[9] = system: Wuhan strain of SARS-CoV-2; assay: IL-6 ELISA in Vero epithelial cells infected with SARS-CoV-2 Wuhan strain; assay type: cell-based; details: MOI=1, 1 mg/ml cis-aconitate for 16 hours from 4 h post-infection
[10] = system: ERK, AKT and NF-κB signaling pathways; assay: Western blotting of phosphorylated ERK1/2, AKT and p65 in BEAS-2B cells; assay type: cell-based, human
IL-6 production [11] = assay: IL-6 ELISA in PBEC (IAV, poly(I:C) or PMA); assay type: cell-based, human
[12] = system: Delta strain of SARS-CoV-2; assay type: cell-based
[13] = system: CCL2/MCP-1, CCL5/RANTES, CXCL1/GROa, CXCL10/IP-10, IL-6 and CXCL8/IL-8; assay: Protein-array of immune mediators in supernatants of IAV-infected BEAS-2B cells; assay type: cell-based, human; details: 3.4 mM

O=C(O)/C=C(/CC(=O)O)C(=O)O [cis-aconitate]
viral particles production (PFU) [1]: at least one log decrease
viral particles production (PFU) [2]: at least one log decrease
cell viability (Live Dead) (BEAS-2B cells; BEAS-2B, 0, 1.2, 2.3 or 3.4 mM, 20 h): did not impact
ROS production (DHR 123) (BEAS-2B cells; BEAS-2B, 3.4 mM, 6 or 24 h): did not impact
cell proliferation (Ki67) (BEAS-2B cells; BEAS-2B, 3.4 mM, 6 or 24 h): did not impact
mitochondria accumulation (mitotracker) (BEAS-2B cells; BEAS-2B, 3.4 mM, 6 or 24 h): did not impact
TNFα secretion in the BAL fluids ([3]; C57Bl/6 mice, 0.6 mg CA intranasally, 24 h): significantly decreased
LPS-induced inflammation (NF-kB bioluminescence) ([3]; NF-kB transgenic Balb/c mice, 0.6 mg CA intranasally 15 minutes post-stimulation, 24 hours): markedly reduced
reduction in IL-6 production (IL-6 production [4]): twofold
adverse effects [5]: no adverse effects
overall fecal microbial composition (Aitchison distance) ([5]; day 0, 7, 14): no differences
IL-6 production, dose-dependent (IL-6 production [6]; BEAS-2B stimulated with 20 ng/ml TNFα): trend
IL-6 production, dose-dependent (IL-6 production [6]; BEAS-2B stimulated with 50 nM PMA): significant decrease
IL-6 production, dose-dependent (IL-6 production [6]; BEAS-2B stimulated with 2 μg/mL Poly (I:C)): significant decrease
IL-6 production, dose-dependent (IL-6 production [7]; BEAS-2B stimulated with IAV MOI=1, increasing doses of CA 16 h): significant decrease
IL-6 production of IAV-infected epithelial cells (IL-6 production [7]; BEAS-2B, IAV MOI=1, 3.4 mM for 16 h): reduced
reduction in SYTOX labeling (dead cells) (IAV-triggered cell death): approximately 70%
luciferase activity versus concentration (viral polymerase): dose-dependent decrease
reduction of luciferase activity (viral polymerase activity) (viral polymerase): ~ 75%
viral particles production (PFU) [8]: at least one log decrease
IL-6 production [9]: significant reduction
ERK, AKT and NF-κB signaling pathways [10]: reductions
accumulation of phosphorylated ERK1/2, Akt and p65 [10]: inhibited
reduction of IAV-induced hIL-6 production (IL-6 production [11]): up to 80%
pro-inflammatory cytokine (IL-6) expression induced by PMA (IL-6 production [11]; PBEC, PMA 4 h, then CA 20 h): dose-dependent decrease
pro-inflammatory cytokine (IL-6) expression induced by PIC (IL-6 production [11]; PBEC, poly(I:C) 4 h, then CA 20 h): dose-dependent decrease
IL-6 production [12]: significant reduction
IAV-induced expression of CCL2/MCP-1, CCL5/RANTES, CXCL1/GROa, CXCL10/IP-10, IL-6 and CXCL8/IL-8 [13]: inhibited
